Structures can show the parent of a compound that is named as a salt.
Columns and labels:
[1] = In vitro rat plasma stability assay, formation of tafamidis; format: in vitro ADME; details: 37° C., 2 µM test compound
Procedure, shortened: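 Compound at 2 µM incubated in rat plasma at 37 °C, sampled at 0, 10, 30, 60, 120 min or 0, 60, 120, 180, 240 min. Protein precipitated, supernatant analyzed by LC-MS/MS, and percentage formation of tafamidis calculated per time point.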

[2] = In vitro rat liver S9 stability assay, formation of tafamidis; format: in vitro ADME; details: rat liver S9, 37° C., 1 µM test compound
Description: The test compound was added to liver S9 and incubated at 37° C. in a water bath at a concentration of 1 µM. At each time point (0, 5, 10, 20, 30 and 60 min), stop solution (tolbutamide plus labetalol) was added to precipitate protein and mixed thoroughly. After centrifugation, an aliquot of supernatant was analyzed by LC-MS/MS. The percentage of formation of active agent was calculated at each time point.

[3] = In vivo rat PK: tafamidis in plasma, CSF and brain; design: species or system Male Sprague-Dawley (SD) rats; details: for Tafamidis CSF/Plasma Ratio (iv): iv administration of test compound; for Tafamidis CSF/Plasma Ratio over 24 hrs (po): po administration of test compound
Text: For a compound provided herein to be an effective TTR stabilizer drug to halt and/or prevent the ocular and cerebral TTR amyloid deposition TTR amyloidosis, it has to be able to penetrate into the brain and CSF (surrogate for eye penetration) and deliver a sufficient amount of TTR stabilizer to stop TTR dissociation. A pharmacokinetic study in rat was used to evaluate the compounds. Male Sprague-Dawley (SD) rats (200-220 g weight) were acclimated for at least 2 to 3 days before being placed on study. All animals had access to certified rodent diet and water at libitum. Appropriate amount of the test compound was accurately weighed and mixed with appropriate volume of vehicle (such as DMSO/sterile water for iv dosing or 0.5% methylcellulose homogenous suspension or solution for oral administration or as a solution in a mixture NMP/PEG400/solutol/water) to administer a dose of 2, 5 or 10 mg/kg. For IV dosing the test compound was administered via tail vein or indwelling cannula. For oral dosing, the test compound was administered by oral gavage. Blood and CSF samples were collected at selected timepoints. Blood collection was performed from saphenous vein or tail vein of each animal into polypropylene tubes at each timepoint. All blood samples were transferred into EDTA-K2 tubes and centrifuged for 15 minutes at 4° C. for plasma collection. Plasma samples were kept at -80° C. until LC/MSMS analysis. CSF was collected from cisterna magna at each timepoint and quick frozen over dry ice and kept at -80° C. until LC/MSMS analysis. Brains were harvested immediately after the terminal bleeding (~ 24 hrs post dosing). The blood of the brain was perfused with normal saline. The brain was quickly picked and placed into centrifuge tube. The weight of brain samples was recorded. 4-Fold homogenization solution (MeOH/15 mM PBS (1:2)) was added into the tube according to the weighed samples. The brain was homogenized using a Polytron (3 strokes or more until homogenous, each 30 seconds) on wet ice. The samples were quick frozen over dry ice and kept at -80° C. until LC/MSMS analysis. Using a LC-MSMS method for the quantitative determination of test compound in biological matrixes, amount of test compound and active agent were measured in plasma and CSF at selected timepoints post-dosing and in brain at 24 hrs post dosing. Plasma concentration versus time data was analyzed by non-compartmental approaches using the Phoenix WinNonlin 6.3 software program. As reference, an oral dose of 2 mg/kg of tafamidis gave a CSF to plasma ratio over 24 hrs around 0.01 and a brain to plasma ratio at 24 hrs around 0.02.

Row | SMILES | Formation of tafamidis at 120 min [1] | Formation of tafamidis at 60 min [2] | Tafamidis CSF/Plasma Ratio (iv) [3] | Tafamidis CSF/Plasma Ratio over 24 hrs (po) [3]
1 | O=C(OCCCN1CCCCC1)c1ccc2nc(-c3cc(Cl)cc(Cl)c3)oc2c1 [Compound 41, 3-(piperidin-1-yl)propyl 2-(3,5-dichlorophenyl)benzo[d] oxazole-6-carboxylate] | C (C is ≥50 to <75%) | A (A is <25%) | C (C is ≥0.02) | A (A is < 0.015)
2 | CN1C[C@H](OC(=O)c2ccc3nc(-c4cc(Cl)cc(Cl)c4)oc3c2)[C@@H](O)C1 [Compound 57, (3S,4S)-4-hydroxy-1-methylpyrrolidin-3-yl 2-(3,5-dichlorophenyl)benzo[d] oxazole-6-carboxylate] | B (B is ≥25 to <50%) | B (B is ≥25 to <50%) | B (B is ≥0.015 to <0.02) | –
3 | CN1CC[C@H](OC(=O)c2ccc3nc(-c4cc(Cl)cc(Cl)c4)oc3c2)C1 [Compound 58, (S)-1-methylpyrrolidin-3-yl 2-(3,5-dichlorophenyl)benzo[d] oxazole-6-carboxylate hydrochloride] | D (D is ≥75%) | A (A is <25%) | – | A (A is < 0.015)
4 | CN1CC[C@@H](OC(=O)c2ccc3nc(-c4cc(Cl)cc(Cl)c4)oc3c2)C1 [Compound 59, (R)-1-methylpyrrolidin-3-yl 2-(3,5-dichlorophenyl)benzo[d] oxazole-6-carboxylate] | C (C is ≥50 to <75%) | A (A is <25%) | – | B (B is ≥0.015 to <0.02)
5 | CN1CCC(COC(=O)c2ccc3nc(-c4cc(Cl)cc(Cl)c4)oc3c2)C1 (stereo not shown) [Compound 60, (1-methylpyrrolidin-3-yl)methyl 2-(3,5-dichlorophenyl)benzo [d] oxazole-6-carboxylate] | A (A is <25%) | A (A is <25%) | B (B is ≥0.015 to <0.02) | –
6 | CN1CCCC(OC(=O)c2ccc3nc(-c4cc(Cl)cc(Cl)c4)oc3c2)C1 (stereo not shown) [Compound 62] | B (B is ≥25 to <50%) | B (B is ≥25 to <50%) | – | A (A is < 0.015)
7 | O=C(NCC(F)F)c1ccc2nc(-c3cc(Cl)cc(Cl)c3)oc2c1 [Compound 66, 2-(3,5-dichlorophenyl)-N-(2,2-difluoroethyl)benzo[d]oxazole-6-carboxamide] | A (A is <25%) | A (A is <25%) | – | C (C is ≥0.02)
8 | CCN1CCC(OC(=O)c2ccc3nc(-c4cc(Cl)cc(Cl)c4)oc3c2)C1 (stereo not shown) [Compound 74] | C (C is ≥50 to <75%) | A (A is <25%) | – | C (C is ≥0.02)
9 | CC(C)N1CCC(OC(=O)c2ccc3nc(-c4cc(Cl)cc(Cl)c4)oc3c2)C1 (stereo not shown) [Compound 75] | B (B is ≥25 to <50%) | A (A is <25%) | – | B (B is ≥0.015 to <0.02)
10 | O=C(OC1CCN(Cc2ccccc2)C1)c1ccc2nc(-c3cc(Cl)cc(Cl)c3)oc2c1 (stereo not shown) [Compound 76] | C (C is ≥50 to <75%) | A (A is <25%) | – | B (B is ≥0.015 to <0.02)
11 | O=C(OCCN1CCS(=O)(=O)CC1)c1ccc2nc(-c3cc(Cl)cc(Cl)c3)oc2c1 [Compound 79] | B (B is ≥25 to <50%) | C (C is ≥50 to <75%) | – | A (A is < 0.015)
12 | O=C(OCCN1CCNCC1)c1ccc2nc(-c3cc(Cl)cc(Cl)c3)oc2c1 [Compound 82] | A (A is <25%) | A (A is <25%) | – | A (A is < 0.015)
13 | O=C(OCC1CCOC1)c1ccc2nc(-c3cc(Cl)cc(Cl)c3)oc2c1 (stereo not shown) [Compound 85] | C (C is ≥50 to <75%) | C (C is ≥50 to <75%) | – | B (B is ≥0.015 to <0.02)
14 | CNC(=O)c1ccc2nc(-c3cc(Cl)cc(Cl)c3)oc2c1 [Compound 87] | A (A is <25%) | A (A is <25%) | – | A (A is < 0.015)
15 | O=C(NCCF)c1ccc2nc(-c3cc(Cl)cc(Cl)c3)oc2c1 [Compound 88] | A (A is <25%) | A (A is <25%) | – | A (A is < 0.015)
16 | Cn1ccc(COC(=O)c2ccc3nc(-c4cc(Cl)cc(Cl)c4)oc3c2)n1 [Compound 90] | A (A is <25%) | D (D is ≥75%) | – | A (A is < 0.015)
17 | O=C(OCc1ncccn1)c1ccc2nc(-c3cc(Cl)cc(Cl)c3)oc2c1 [Compound 102] | B (B is ≥25 to <50%) | C (C is ≥50 to <75%) | – | A (A is < 0.015)
18 | O=C(OCCCn1ccnc1)c1ccc2nc(-c3cc(Cl)cc(Cl)c3)oc2c1 [Compound 117] | B (B is ≥25 to <50%) | D (D is ≥75%) | – | B (B is ≥0.015 to <0.02)
19 | CS(=O)(=O)N1CCC(OC(=O)c2ccc3nc(-c4cc(Cl)cc(Cl)c4)oc3c2)C1 (stereo not shown) [Compound 139] | A (A is <25%) | B (B is ≥25 to <50%) | – | A (A is < 0.015)
20 | O=C(OC1CCN(CC(F)F)C1)c1ccc2nc(-c3cc(Cl)cc(Cl)c3)oc2c1 (stereo not shown) [Compound 144] | B (B is ≥25 to <50%) | C (C is ≥50 to <75%) | – | B (B is ≥0.015 to <0.02)
21 | O=C(c1ccc2nc(-c3cc(Cl)cc(Cl)c3)oc2c1)N1CCNCC1 [Compound 145] | A (A is <25%) | A (A is <25%) | – | B (B is ≥0.015 to <0.02)
22 | O=C(OC1CCN(CC(F)(F)F)C1)c1ccc2nc(-c3cc(Cl)cc(Cl)c3)oc2c1 (stereo not shown) [Compound 151] | A (A is <25%) | D (D is ≥75%) | – | B (B is ≥0.015 to <0.02)
23 | O=C(OCCc1ncc[nH]1)c1ccc2nc(-c3cc(Cl)cc(Cl)c3)oc2c1 [Compound 153] | B (B is ≥25 to <50%) | B (B is ≥25 to <50%) | – | B (B is ≥0.015 to <0.02)
24 | O=C(OC1CCn2cncc21)c1ccc2nc(-c3cc(Cl)cc(Cl)c3)oc2c1 (stereo not shown) [Compound 156, 6,7-dihydro-5H-pyrrolo[1,2-c]imidazol-7-yl 2-(3,5-dichlorophenyl)-benzo[d]oxazole-6-carboxylate] | D (D is ≥75%) | C (C is ≥50 to <75%) | – | B (B is ≥0.015 to <0.02)

Reference: US20230287021A1, “COMPOUNDS, COMPOSITIONS AND METHODS FOR STABILIZING TRANSTHYRETIN AND INHIBITING TRANSTHYRETIN MISFOLDING” (Protego Biopharma, Inc., priority 2020, published 2023)
